Legend:
BaF3 NPM-ALK C1156Y = target: T1, BaF3 NPM-ALK C1156Y (Homo sapiens, UniProt Q9UM73, C1156Y, cells depend on it); assay: Tritiated thymidine uptake cell proliferation assay, BaF3 NPM-ALK C1156Y; format: cell-based, murine; details: cell line BaF3 NPM-ALK C1156Y; read-out: IC50 of cellular proliferation, BaF3 NPM-ALK C1156Y
T1 construct: fused on or other part: P06748 (Nucleophosmin)
Experimental: (§1) Method: Tritiated Thymidine Uptake Cell Proliferation Assay
(§2) The following procedure was used with parent untransformed BaF3 cells, BaF3 cells transformed with the oncogenic fusion protein NPM/ALK, NPM/ALK positive SUDHL-1 cells, NPM/ALK positive SUPM2, ALK-negative HL60 cells, NPM/ALK positive KARPAS-299 cells. The parent untransformed BaF3 cells or Alk-negative HL60 cells are used as controls. Cells were seeded in U-bottomed 96-well plates at 10000 cells/well in a volume of 100 μl in supplemented medium. In the case of the parent untransformed BaF3 cells, the medium was supplemented with IL-3. Serial dilutions of inhibitors were added to the appropriate wells and volumes adjusted to 200 μl. Controls were treated with the equivalent volume of vehicle, DMSO, alone. Plates were incubated at 37° C. for 72 h. 3[H]-thymidine (1 μCi/well) was added for the last 16 h of incubation. Cells were harvested on to paper filters and 3[H]-thymidine incorporation was measured using a scintillation counter (1430 MicroBeta, Wallac, Turku, Finland). The 50% inhibitory concentration (IC50) was defined as the concentration of inhibitor, expressed in nanomolar units, that gave a 50% decrease in 3[H]-thymidine uptake compared with controls.
(§3) In Table 4 are reported the IC50 of cellular proliferation assays of example 3 versus ALK positive, mutated and negative cell lines.

[1] = tested on: NPM/ALK positive SUDHL-1 cells; assay: Tritiated thymidine uptake cell proliferation assay, SUDHL1; format: cell-based; details: Homo sapiens, SU-DHL-1; cell line SUDHL1; read-out: IC50 of cellular proliferation, SUDHL1
Experimental: as §1, §2, §3

ALK-negative HL60 cells = assay: Tritiated thymidine uptake cell proliferation assay, HL60 (ALK-negative control); format: cell-based; details: Homo sapiens, HL-60; cell line HL60, ALK negative control; read-out: IC50 of cellular proliferation, HL60
Experimental: as §1, §2
Potentially toxic effects were assessed using parent untransformed BaF3 cells or ALK negative HL60 cells. […]

ALK F1174L (GST-His-tag) = target: T2, ALK F1174L (GST-His-tag) (Homo sapiens, UniProt Q9UM73, F1174L); assay: Radiometric protein kinase assay (33PanQuinase Activity Assay), ALK F1174L; format: biochemical; details: ATP 0.3 μM
T2 construct: either as full-length or enzymatically active fragments; purchased ProQinase GmbH (Freiburg, Germany)
T2 sequence (Q9UM73 19-1620 F1174L): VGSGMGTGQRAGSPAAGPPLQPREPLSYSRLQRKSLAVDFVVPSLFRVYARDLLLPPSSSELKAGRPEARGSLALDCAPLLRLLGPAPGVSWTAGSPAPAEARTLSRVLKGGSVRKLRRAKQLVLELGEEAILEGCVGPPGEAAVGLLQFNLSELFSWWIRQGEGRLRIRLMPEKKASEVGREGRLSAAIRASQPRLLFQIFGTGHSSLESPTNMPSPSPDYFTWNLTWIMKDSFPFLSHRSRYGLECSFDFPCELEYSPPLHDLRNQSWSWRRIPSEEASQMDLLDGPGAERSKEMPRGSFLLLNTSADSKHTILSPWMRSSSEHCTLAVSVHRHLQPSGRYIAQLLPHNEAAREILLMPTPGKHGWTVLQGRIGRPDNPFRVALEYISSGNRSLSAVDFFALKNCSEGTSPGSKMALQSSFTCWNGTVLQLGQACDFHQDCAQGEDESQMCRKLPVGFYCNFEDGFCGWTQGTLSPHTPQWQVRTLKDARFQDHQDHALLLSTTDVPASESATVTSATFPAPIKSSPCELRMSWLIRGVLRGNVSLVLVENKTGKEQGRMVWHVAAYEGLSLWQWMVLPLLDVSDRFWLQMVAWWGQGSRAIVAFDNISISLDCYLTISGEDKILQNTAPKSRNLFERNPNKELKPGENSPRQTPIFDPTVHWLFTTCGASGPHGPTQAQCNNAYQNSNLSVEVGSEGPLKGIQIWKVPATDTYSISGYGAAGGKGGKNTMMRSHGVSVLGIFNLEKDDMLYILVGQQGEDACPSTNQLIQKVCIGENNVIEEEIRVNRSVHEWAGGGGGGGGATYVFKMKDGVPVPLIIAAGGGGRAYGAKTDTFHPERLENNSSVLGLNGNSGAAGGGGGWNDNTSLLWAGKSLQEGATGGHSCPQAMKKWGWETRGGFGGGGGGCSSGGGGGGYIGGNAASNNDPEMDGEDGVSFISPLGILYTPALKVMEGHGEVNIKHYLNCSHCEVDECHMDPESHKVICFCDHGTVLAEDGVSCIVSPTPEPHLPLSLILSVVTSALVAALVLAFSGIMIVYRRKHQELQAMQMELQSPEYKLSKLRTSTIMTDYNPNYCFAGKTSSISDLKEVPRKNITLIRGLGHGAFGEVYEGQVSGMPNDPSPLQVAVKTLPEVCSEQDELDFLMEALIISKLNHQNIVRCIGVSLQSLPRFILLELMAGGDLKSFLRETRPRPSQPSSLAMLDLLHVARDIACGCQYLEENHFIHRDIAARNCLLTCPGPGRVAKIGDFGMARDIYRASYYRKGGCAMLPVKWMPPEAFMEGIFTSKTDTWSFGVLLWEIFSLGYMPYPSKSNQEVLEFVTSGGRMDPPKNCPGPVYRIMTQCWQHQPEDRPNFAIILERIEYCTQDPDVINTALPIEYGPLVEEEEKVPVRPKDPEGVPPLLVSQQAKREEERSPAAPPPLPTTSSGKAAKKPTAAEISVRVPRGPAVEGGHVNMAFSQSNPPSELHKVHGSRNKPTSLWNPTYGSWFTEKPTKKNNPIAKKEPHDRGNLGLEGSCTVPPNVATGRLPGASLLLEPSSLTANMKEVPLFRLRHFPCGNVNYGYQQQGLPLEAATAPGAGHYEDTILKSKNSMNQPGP
Experimental: (§4) A proprietary radiometric protein kinase assay (33PanQuinase® Activity Assay) developed by ProQuinase GmbH (Freiburg, Germany) was used for measuring the kinase activity of selected protein kinases. All assays were performed in FlashPlates™ wells 96 Perkin Elmer (Boston, Mass., USA) in a reaction volume of 50 μl. The reaction mixture was obtained in 4 steps in the following order: • 1. 10 μl of a solution of non-radioactive ATP in water; • 2. 25 μl of assay buffer/[γ-^33P]-ATP mixture • 3. 5 μl of test sample in 10% DMSO • 4. 10 μl of enzyme/substrate mixture
(§5) All protein kinases provided by ProQinase were expressed in Sf9 insect cells or in E. coli as recombinant GST-fusion proteins or His-tagged proteins, either as full-length or enzymatically active fragments. […] Kinases from external vendors (CAR=Carna Biosciences Inc.; INV=Life Technologies (Invitrogen Corporation); MIL=Merck-Millipore (Millipore Corporation), were expressed, purified and quality-controlled by virtue of the vendors readings.
(§6) A stock solution of compound of formula (I) was diluted to 5×10-04M/100% DMSO. […] Incorporation of 33Pi (counting of “cpm”) was determined with a microplate scintillation counter (Microbeta, Wallac). […]
(§7) Based on each 10 corresponding residual activities, IC50 values were calculated using Prism 5.04 for Windows (Graphpad, San Diego, Calif.). […]

[2] = target: T3, ALK wild-type (GST-His-tag) (Homo sapiens, UniProt Q9UM73); assay: Radiometric protein kinase assay (33PanQuinase Activity Assay), ALK wild-type; format: biochemical; details: ATP 0.3 μM
T3 construct: either as full-length or enzymatically active fragments; purchased ProQinase GmbH (Freiburg, Germany)
T3 sequence (Q9UM73 19-1620): as the sequence (Q9UM73 19-1620 F1174L) above, with L1156F counted along it
Experimental: as §4, §5, §6, §7

T1 sequence (Q9UM73 whole entry C1156Y, the tested form may be a part): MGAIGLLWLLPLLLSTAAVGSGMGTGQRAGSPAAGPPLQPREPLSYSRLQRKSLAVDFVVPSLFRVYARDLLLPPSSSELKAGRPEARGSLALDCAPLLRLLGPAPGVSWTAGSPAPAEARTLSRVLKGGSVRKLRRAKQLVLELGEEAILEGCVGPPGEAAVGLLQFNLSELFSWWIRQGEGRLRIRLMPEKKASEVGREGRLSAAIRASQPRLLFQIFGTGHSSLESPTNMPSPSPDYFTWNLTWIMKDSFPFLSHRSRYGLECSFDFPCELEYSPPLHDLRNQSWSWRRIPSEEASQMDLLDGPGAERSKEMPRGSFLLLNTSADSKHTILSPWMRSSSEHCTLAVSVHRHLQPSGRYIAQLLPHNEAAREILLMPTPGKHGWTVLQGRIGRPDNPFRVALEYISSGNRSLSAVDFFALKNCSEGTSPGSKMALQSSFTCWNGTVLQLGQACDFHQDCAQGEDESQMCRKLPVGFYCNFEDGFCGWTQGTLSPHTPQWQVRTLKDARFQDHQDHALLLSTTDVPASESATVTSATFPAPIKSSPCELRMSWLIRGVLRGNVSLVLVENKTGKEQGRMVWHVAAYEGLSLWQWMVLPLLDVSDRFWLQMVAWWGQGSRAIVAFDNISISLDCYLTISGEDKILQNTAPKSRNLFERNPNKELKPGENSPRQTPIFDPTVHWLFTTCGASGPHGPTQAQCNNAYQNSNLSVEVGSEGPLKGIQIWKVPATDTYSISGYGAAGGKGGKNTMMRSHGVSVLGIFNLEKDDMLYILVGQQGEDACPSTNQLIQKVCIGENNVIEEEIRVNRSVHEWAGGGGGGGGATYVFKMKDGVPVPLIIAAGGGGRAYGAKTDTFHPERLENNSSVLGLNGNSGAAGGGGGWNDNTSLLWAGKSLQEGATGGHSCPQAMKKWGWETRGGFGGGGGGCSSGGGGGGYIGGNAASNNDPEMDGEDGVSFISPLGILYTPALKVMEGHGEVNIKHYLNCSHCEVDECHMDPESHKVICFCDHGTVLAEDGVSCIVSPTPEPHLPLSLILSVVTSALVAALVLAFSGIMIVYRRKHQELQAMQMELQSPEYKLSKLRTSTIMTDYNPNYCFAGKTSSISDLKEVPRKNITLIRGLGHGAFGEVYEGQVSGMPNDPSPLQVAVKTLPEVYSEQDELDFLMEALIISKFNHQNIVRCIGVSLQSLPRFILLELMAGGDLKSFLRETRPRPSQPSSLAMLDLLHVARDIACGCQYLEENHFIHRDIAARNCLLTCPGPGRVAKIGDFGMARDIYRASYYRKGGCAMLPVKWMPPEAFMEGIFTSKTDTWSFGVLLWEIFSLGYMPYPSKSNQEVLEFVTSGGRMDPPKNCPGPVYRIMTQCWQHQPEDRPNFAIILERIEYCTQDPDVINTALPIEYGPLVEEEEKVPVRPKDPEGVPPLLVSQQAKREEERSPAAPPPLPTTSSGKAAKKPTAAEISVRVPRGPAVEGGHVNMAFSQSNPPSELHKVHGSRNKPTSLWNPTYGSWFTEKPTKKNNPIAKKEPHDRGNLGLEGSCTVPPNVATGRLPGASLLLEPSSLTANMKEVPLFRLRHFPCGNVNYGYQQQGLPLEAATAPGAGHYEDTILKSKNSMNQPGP

CN1CCN(c2ccc(C(=O)Nc3n[nH]c4cc(-c5ccc(O)cc5)c(Cc5cc(F)cc(F)c5)cc34)c(NC3CCOCC3)c2)CC1 [Example 3, N-[5-[(3,5-difluorophenyl)methyl]-6-(4-hydroxyphenyl)-1H-indazol-3-yl]-4-(4-methylpiperazin-1-yl)-2-(tetrahydropyran-4-ylamino)benzamide]
GI50 (BaF3 NPM-ALK C1156Y): 34 nM
IC50 [1]: 36 nM
IC50 (ALK-negative HL60 cells): 17000 nM
IC50 (ALK F1174L (GST-His-tag)): 46 nM
IC50 [2]: 29 nM
